Data published in patent publication US10869846B2, “N-acetylcysteine amide (NAC amide) in the treatment of diseases and conditions associated with oxidative stress” (SENTIENT LIFESCIENCES, INC., priority 2005, dated 2020).
Values joined by “and” are separate entries in the source; they are usually repeats but may differ in a detail not shown here. Identical values can stand only once. Marks after values point to notes of the source that are not given here.

How the values were obtained:
Type in all cases: in vivo, rat
Sprague-Dawley rats = test: Survival after whole body single-dose X-ray irradiation (9 Gy); conditions: for survival rate versus XRT alone: pre-treated before XRT
Excerpt: This Example describes a study observing the survival of rats receiving whole body, single-dose irradiation by X-rays (XRT) in the presence or absence of NAC or NAC amide (TOVA). In this experiment, thirty-nine female Sprague-Dawley rats ranging from about 150-200 g were subjected to total body, single-dose X-ray irradiation (9 Gy, 16 Mev). The same groups were designated to receive either NAC or TOVA. For the pre-treatment groups (n=6 in each group), the first treatment of NAC or TOVA was administered 30 minutes to 1 hour before irradiation. For the post-pretreatment groups (n=6 in each group), the first treatment of NAC or TOVA was administered 30 minutes to 1 hour after the irradiation. For groups receiving NAC or TOVA, the same amount (500 mg/kg NAC or TOVA daily) was administered for 4 or 5 consecutive days.
Group 1 was a control group (n=3), where rats received the same amount of saline solution daily for 5 consecutive days without XRT. Group 2 rats received NAC only (n=3) at an amount of 500 mg/kg body weight NAC daily for 5 consecutive days without XRT. Group 3 rats received TOVA only (n=3) at an amount of 500 mg/kg body weight TOVA daily for 5 consecutive days without XRT. Group 4 rats received radiation (XRT) only (n=6) and received the same amount of saline solution daily for 5 consecutive days after single dose total-body XRT irradiation.
Group 5 rats received one treatment of NAC at 500 mg/kg body weight before XRT (XRT+NAC pre-treated), which was then followed by 500 mg/kg body weight NAC daily for 4 consecutive days after XRT. Group 6 rats received XRT, followed by daily doses of NAC at 500 mg/kg body weight for 5 consecutive days after XRT (XRT+NAC post-treated). Group 7 rats […] at 500 mg/kg body weight before XRT (XRT+TOVA pre-treated), which was then followed by 500 mg/kg body weight TOVA daily for 4 consecutive days after XRT. Group 8 rats received XRT, followed by daily doses of TOVA at 500 mg/kg body weight for 5 consecutive days after XRT (XRT+TOVA post-treated). All rats were then given a normal diet post-treatment.
The rats were observed twice a day, and the survival status of rats in each group will be recorded. The mean survival days were calculated for each group and compared to the survival differences of the three groups of rats at the end of the experiment. The radioprotective effects of NAC and TOVA treatment on the survival of those irradiated rats were then evaluated, as shown in the following tables.

Sprague Dawley rats [1] = test: Catalase activities in tissues after 6Gy total-body x-ray radiation; conditions: KIDNEY, 500 mg/kg orally; for Catalase level: individual animals; for Catalase Mean: n = 3
Sprague Dawley rats [2] = test: MDA levels in tissues after 6Gy total-body x-ray radiation; conditions: for MDA level / MDA Mean: 6Gy total-body x-ray, 500 mg/kg orally; for MDA level: individual animals; for MDA Mean: n = 3; for lung MDA levels: treatment concurrent with irradiation, versus irradiation alone
Method: Animal studies: The irradiation of rats was performed at the Radiation Oncology Department of the Phelps County Regional Medical Center in Rolla, Mo., using a 16 MeV beam generated by a Varian linear accelerator, model Clinac 1800, and in accordance with the standards of humane laboratory animal protocols. A 20×20 or 25×25 cm field was used and output factors were checked once a week. Twelve animals were divided into 4 groups each containing 3 animals (Control, XRT, NAC amide+XRT and NAC+XRT). The radiation (XRT) control received whole body irradiation by 6 Gy of 16 MeV electrons. The NAC amide+XRT group received 500 mg/kg/day NAC amide immediately before irradiation and for three days after until sacrifice. The rats were anesthetized and heparinized blood was collected via cardiopuncture. Following sacrifice, liver, lung, brain and spleen were removed and stored at −70° C. until homogenization.
All experiments were performed using adult Albino SASCO Sprague Dawley female rats weighing about 250 g, which were purchased from Charles River Laboratories Inc. (Portage, Mich.). Twelve rats were shipped in paper crates (4 in each crate). Rats were delivered with a certificate including serological, bacteriological, pathological parasitological information. They were divided into 4 cages (3 rats in each cage) and kept in a temperature controlled (20° C.) room equipped to maintain a 12 h light-dark cycle. Standard rat chow (Purina rat chow) and tap water were supplied in individual glass bottle and given ad libitum. Water was changed daily. Weights of the animal were taken before giving the NAC amide treatment solution and amount of food eaten and water consumed was not measured because NAC amide was given orally but not in the drinking water or food.
NAC amide was provided by Novetide Ltd (Haifa Bay, Israel) including certificate of analysis and MSDS (lot #40233-64). NAC amide feeding solution was prepared freshly each day right before the administration by weighing 1.25 g NAC amide solid sample (Type HR-120 electronic balance, A&D Company limited, Japan. S/N: 12202464) and adding into 10 ml PBS solution and put on ice. One ml of this solution was administrated (gavaged) per rat orally by using animal feeding biomedical needles and 3 ml BD Luer-Lok Tip syringes. Rats received one-dose total-body 6 Gy/16 MeV x-ray radiation and 3 rats in each group were held in a covered bucket and received radiation at the same time. Each day at the same time, 500 mg/Kg body weight of NAC amide was administrated to the animals.
For MDA levels, 350 μL tissue homogenate was used to react with 100 μL of 500 ppm BHT solution and 550 μL solution of 10% TCA solution, therefore, the total volume here was 1000 μL. After boiling the whole solution, 500 μL was taken out and react with 500 μL TBA and the total volume here was 1000 μL also.
Glutathione (GSH) and Glutathione Disulfide (GSSG) Determination: Cells or tissue samples were homogenized on ice and derivatized with N-(1-pyrenyl)-maleimide (NPM). The derivatized samples were injected onto a 3 μm C18 column (Column Engineering) in a reverse phase HPLC system with a mobile phase of 35% water, 65% acetonitrile containing 1 mL/L of acetic acid and o-phosphoric acid (R. Winters, et al., Anal. Biochem., 227:14-21 (1995) and H. H. Draper et al., Free Rad. Biol. Med., 15:353-363 (1993)). Malondialdehyde (MDA) determinations were made as described in J. Gutteridge, Anal. Biochem., 69: 518-526 (1975).

[3] = Table 15, XRT 9 Gy, post-treated
[4] = Table 15, XRT 9 Gy, pre-treated
[5] = Table 15, compound only, no XRT
[6] = Table 16, XRT 9 Gy, post-treated
[7] = Table 16, XRT 9 Gy, pre-treated
[8] = Table 16, compound only, no XRT
[9] = XRT 9 Gy, post-treated, 500 mg/kg daily, n = 6, 2nd time
[10] = XRT 9 Gy, pre-treated, 500 mg/kg daily, n = 6, 1st time
[11] = XRT 9 Gy, pre-treated, 500 mg/kg daily, n = 6, 2nd time
[12] = compound only, no XRT, 500 mg/kg daily 5 days, 2nd time

| Compound | percentage survival rate (Sprague-Dawley rats; [3]) | percentage survival rate (Sprague-Dawley rats; [4]) | percentage survival rate (Sprague-Dawley rats; [5]) | percentage survival rate (Sprague-Dawley rats; [6]) | percentage survival rate (Sprague-Dawley rats; [7]) | percentage survival rate (Sprague-Dawley rats; [8]) | # of animals dead (Sprague-Dawley rats; [9]) | # of animals survived (Sprague-Dawley rats; [9]) | # of animals dead (Sprague-Dawley rats; [10]) | # of animals survived (Sprague-Dawley rats; [10]) | # of animals dead (Sprague-Dawley rats; [11]) | # of animals survived (Sprague-Dawley rats; [11]) | # of animals dead (Sprague-Dawley rats; [12]) | # of animals survived (Sprague-Dawley rats; [12]) | survival rate versus XRT alone (Sprague-Dawley rats) | Catalase Mean (Sprague Dawley rats [1]) | MDA Mean (Sprague Dawley rats [2]; BRAIN) | MDA Mean (Sprague Dawley rats [2]; KIDNEY) | MDA Mean (Sprague Dawley rats [2]; LIVER) | MDA Mean (Sprague Dawley rats [2]; LUNG) | also measured |
| --- | --- | --- | --- | --- | --- | --- | --- | --- | --- | --- | --- | --- | --- | --- | --- | --- | --- | --- | --- | --- | --- |
| CC(=O)N[C@@H](CS)C(=O)O [NAC, N-acetylcysteine] | 33.3% | 83.3% | 100% | 33.3% | 83.3% | 100% | 4 | 2 | 1 | 5 | 1 | 5 | 0 | 2 | higher survival rate | 4.41 mU/mg | 6.15 nmol/100 mg | 1.65** nmol/100 mg | 5.07**/*** nmol/100 mg | 2.52** nmol/100 mg | Catalase level (Sprague Dawley rats [1]; 500 mg/kg): 5.85 mU/mg and 3.02 mU/mg and 4.36 mU/mg; MDA level (Sprague Dawley rats [2]; BRAIN, 500 mg/kg): 6.42 nmol/100 mg and 6.69 nmol/100 mg and 5.33 nmol/100 mg; MDA level (Sprague Dawley rats [2]; KIDNEY, 500 mg/kg): 1.76 nmol/100 mg and 1.78 nmol/100 mg and 1.41 nmol/100 mg; MDA level (Sprague Dawley rats [2]; LIVER, 500 mg/kg): 5.1 nmol/100 mg (2×) and 5.02 nmol/100 mg; MDA level (Sprague Dawley rats [2]; LUNG, 500 mg/kg): 2.58 nmol/100 mg and 2.34 nmol/100 mg and 2.63 nmol/100 mg; lung MDA levels (Sprague Dawley rats [2]): did not change the MDA levels significantly |
| N-acetylcysteine amide [NAC amide] | 66.7% | 100% | 100% | 66.7% | 100% | 100% | 2 | 4 | 0 | 6 | 0 | 6 | 0 | 3 | higher survival rate | 3.97** mU/mg | 5.48 nmol/100 mg | 1.64** nmol/100 mg | 4.38** nmol/100 mg | 1.53** nmol/100 mg | Catalase level (Sprague Dawley rats [1]; listed as AD4, 500 mg/kg): 3.89 mU/mg and 3.46 mU/mg and 4.56 mU/mg; MDA level (Sprague Dawley rats [2]; BRAIN, listed as AD4, 500 mg/kg): 5.79 nmol/100 mg and 5.53 nmol/100 mg and 5.13 nmol/100 mg; MDA level (Sprague Dawley rats [2]; KIDNEY, listed as AD4, 500 mg/kg): 1.96 nmol/100 mg and 1.45 nmol/100 mg; MDA level (Sprague Dawley rats [2]; KIDNEY, listed as AL4, 500 mg/kg): 1.5 nmol/100 mg; MDA level (Sprague Dawley rats [2]; LIVER, listed as AD4, 500 mg/kg): 4.14 nmol/100 mg and 4.65 nmol/100 mg and 4.36 nmol/100 mg; MDA level (Sprague Dawley rats [2]; LUNG, listed as AD4, 500 mg/kg): 1.72 nmol/100 mg and 1.58 nmol/100 mg and 1.28 nmol/100 mg; lung MDA levels (Sprague Dawley rats [2]): significantly lowered |
